# Assay results: article PMC9555310, “Novel inhibitors and activity-based probes targeting serine proteases” (Frontiers in Chemistry, 2022)
# What was measured:
# thrombin = target: T1, thrombin (Homo sapiens, UniProt P00734); test: Activity-based profiling of thrombin (SDS-PAGE, streptavidin-HRP western blot); assay type: binding; conditions: pre-treatment 30 min, 37°C
# T1 construct: apparent molecular mass of 31 kDa, corresponding to the heavy (catalytic) chain of the protease; purchased R&D Systems
# Method: Samples of recombinant protease (trypsin, plasmin, thrombin, chymotrypsin, or HNE, as indicated in the relevant figure legends) were treated with each of the newly synthesized compounds at a concentration of 50 μM, for 30 min, at 37°C. A control sample (no ABP) was prepared by treating the recombinant protease with solvent vehicle (DMF) only, used to prepare the stock solution of each ABP. Samples were also pre-treated (±90°C for 30 min) before being incubated with each putative ABP. With trypsin and thrombin, further samples were prepared where Z-Arg^P-(OPh)2 or NAP559, respectively, was added 30 min prior to the addition of the ABP under examination. All treated samples were then denatured with SDS containing reducing treatment buffer (10 min at 95°C), followed by resolution by SDS-PAGE and subjected to Western blotting. Resolved proteins were then transferred onto the nitrocellulose membrane and labeled with streptavidin-HRP. The ABP–protease complex was then visualized following treatment with Luminata Forte HRP substrate.
# FIGURE 8 Activity Based Profiling of Trypsin-like serine proteases. (A) trypsin was treated (±) with NAP830, for 30 min, at 37°C (± pretreatment with Z-Arg^P-(OPh)2). (B) thrombin (1 […]) was pre-treated with various concentrations of NAP559 (30 min, at 37°C) followed by treatment (±) with NAP858 for 30 min, at 37°C. (C) Plasmin was treated in turn with QUBTL1, NAP962 and NAP830, (± pre-heat inactivation at 95°C, for 10 min) for 30 min, at 37°C. […]
# (§1) Following transfer, the extra protein binding sites on the membrane were blocked by addition of 3% (w/v) BSA in TBST (20 mM Tris, 137 mM NaCl, 1% (v/v) Tween 20, pH 7.6) and agitated gently at room temperature for 30 minutes. The biotin-labelled proteases were then detected by addition of Streptavidin-HRP (Vector Laboratories) in 3% (w/v) BSA in TBST at a concentration of 1:20000, for 1 hour at room temperature. […]
# chymotrypsin = target: T2, chymotrypsin (Bos taurus, UniProt P00766); test: Activity-based profiling of chymotrypsin (SDS-PAGE, streptavidin-HRP western blot); assay type: binding, bovine; conditions: 50 μM ABP, 30 min, 37°C; blocked by heat inactivation
# T2 construct: purchased Sigma-Aldrich (supplement); Calbiochem; host or cells: bovine pancreas
# Method: Samples of recombinant protease (trypsin, plasmin, thrombin, chymotrypsin, or HNE, as indicated in the relevant figure legends) were treated with each of the newly synthesized compounds at a concentration of 50 μM, for 30 min, at 37°C. A control sample (no ABP) was prepared by treating the recombinant protease with solvent vehicle (DMF) only, used to prepare the stock solution of each ABP. Samples were also pre-treated (±90°C for 30 min) before being incubated with each putative ABP. With trypsin and thrombin, further samples were prepared where Z-Arg^P-(OPh)2 or NAP559, respectively, was added 30 min prior to the addition of the ABP under examination. […]
# FIGURE 7 Activity Based Profiling of serine proteases by peptide N-Alkyl glycine carbamates. […] CF Sol (sample 26w) was used at a final concentration of 2.5% (v/v), and the level of NE contained therein was measured using Succinyl-Ala-Ala-Pro-Val-NHMec (50 μM), in the absence (-- o --) and presence (-- o --) of NAP800 (50 μM). […]
# as §1
effect of pre-treatment of thrombin on 31 kDa band disclosed by NAP858 (thrombin; 10 and 50 μM),SMILES,effect of pre-treatment of thrombin on 31 kDa band disclosed by NAP858 (thrombin; 1 μM),labelling of chymotrypsin by ABP (western blot) (chymotrypsin)
almost completely extinguished,"N=C(N)NCCCN(CC(=O)N1CCC[C@H]1C(=O)N(CC(N)=O)Cc1ccccc1)C(=O)ON1C(=O)CCC1=O [NAP559, Succinimidoyl-CO-NArg-D-Pro-NPhe-NH2]",slight but a discernible diminution in the intensity of the band,
,"O=C(CCCCC1SCC2NC(=O)NC21)NCCCOCCOCCOCCCNC(=O)CNC(=O)CNC(=O)CN(Cc1ccccc1)C(=O)ON1C(=O)CCC1=O (stereo not drawn) [NAP849, Succinimidoyl-CO-NPhe-Gly-Gly-PEG-Biotin]",,detection of a strong band corresponding to the molecular weight of chymotrypsin
